T/C data for 16 compounds are collected here from PubChem BioAssay AID248 (DTP/NCI, 2004).

Each structure is given as a SMILES string. Where “and” joins values, the source holds several entries; their conditions need not be identical. Equal entries are not always repeated. Inconclusive results and toxic doses are left out.

This assay has as its system L1210 leukemia ip in BDF1 mice, survival T/C. Nature of the assay: NCI In Vivo Anticancer Drug Screen. Data for tumor model L1210 Leukemia (intraperitoneal) in B6D2F1 (BDF1) mice. The conditions noted are these: endpoint: mean survival time, higher = longer survival. In a few lines: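 Tumor was transplanted into mice, which were then dosed with test compound or vehicle alone. Survival was recorded for each group, and the treated figure was expressed relative to the control figure.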

Setting [1] is: dose: 100.0 mg/kg/injection, schedule: Q01DX009 (ip), vehicle: saline with Tween-80.
The mark [2] stands for this setting: dose: 200.0 mg/kg/injection, schedule: Q01DX009 (ip), vehicle: saline with Tween-80.
Setting [3] is: dose: 400.0 mg/kg/injection, schedule: Q01DX009 (ip), vehicle: saline with Tween-80.
Setting [4] is: dose: 12.5 mg/kg/injection, schedule: Q01DX009 (ip), vehicle: saline with Tween-80.
[5] abbreviates: dose: 100.0 mg/kg/injection, schedule: Q01DX009 (ip), vehicle: Klucel (hydroxypropylcellulose) (HPC).
Setting [6] is: dose: 100.0 mg/kg/injection, schedule: Q04DX003 (ip), vehicle: saline with Tween-80.
Where [7] appears, read: dose: 200.0 mg/kg/injection, schedule: Q04DX003 (ip), vehicle: saline with Tween-80.
[8] abbreviates: dose: 400.0 mg/kg/injection, schedule: Q04DX003 (ip), vehicle: saline with Tween-80.

As to `O=C1OC(OC(=O)c2ccccc2)C(NC2CCCCC2)=C1Br` (stereo not drawn), the T/C reads like this: under setting [1], 98 % of control; under setting [2], 96 % of control; under setting [3], 98 % of control.

Consider `CCCCC(=O)N(CCC)CCC`, for which the T/C reads like this: (dose: 100.0 mg/kg/injection, schedule: Q04DX002 (ip), vehicle: saline) 96 % of control; (dose: 200.0 mg/kg/injection, schedule: Q04DX002 (ip), vehicle: saline) 104 % of control; (dose: 400.0 mg/kg/injection, schedule: Q04DX002 (ip), vehicle: saline) 104 % of control.

Turning to `Cc1ccccc1Sc1ccccc1[N+](=O)[O-]`, the T/C runs as follows: (dose: 100.0 mg/kg/injection, schedule: Q04DX003 (ip), vehicle: Klucel (hydroxypropylcellulose) (HPC)) 95 % of control; (dose: 200.0 mg/kg/injection, schedule: Q04DX003 (ip), vehicle: Klucel (hydroxypropylcellulose) (HPC)) 106 % of control; (dose: 400.0 mg/kg/injection, schedule: Q04DX003 (ip), vehicle: Klucel (hydroxypropylcellulose) (HPC)) 103 % of control.

Consider `O=C(c1ccccc1)C1C(c2ccccc2)OP(c2ccccc2)(c2ccccc2)(c2ccccc2)C1c1ccccc1` (stereo not drawn), for which the T/C by setting is: (dose: 6.25 mg/kg/injection, schedule: Q04DX003 (ip), vehicle: saline with Tween-80) 102 % of control; under setting [4], 97 % of control; (dose: 25.0 mg/kg/injection, schedule: Q04DX003 (ip), vehicle: saline with Tween-80) 94 % of control.

As to `CC(=O)OCC1OC(n2cnc3c(=S)nc(N)[nH]c32)C(OC(C)=O)C1OC(C)=O` (stereo not drawn), the T/C reads like this: (dose: 1.6 mg/kg/injection, schedule: Q01DX Z (ip), vehicle: carboxymethylcellulose (CMC)) 106 % of control; (dose: 5.0 mg/kg/injection, schedule: Q01DX Z (ip), vehicle: carboxymethylcellulose (CMC)) 162 % of control; (dose: 6.25 mg/kg/injection, schedule: Q01DX Z (oral), vehicle: other) 94 % of control; (dose: 7.5 mg/kg/injection, schedule: Q01DX Z (ip), vehicle: carboxymethylcellulose (CMC)) 162 % of control; (dose: 11.2 mg/kg/injection, schedule: Q01DX Z (ip), vehicle: carboxymethylcellulose (CMC)) 176 % of control; (dose: 12.5 mg/kg/injection, schedule: Q01DX Z (oral), vehicle: other) 106 % of control. The T/C by setting is: (dose: 25.0 mg/kg/injection, schedule: Q01DX Z (oral), vehicle: other) 105 % of control; (dose: 44.0 mg/kg/injection, schedule: Q01DX Z (ip), vehicle: carboxymethylcellulose (CMC)) 86 % of control; (dose: 50.0 mg/kg/injection, schedule: Q01DX001 (ip), vehicle: saline) 100 % of control; (dose: 50.0 mg/kg/injection, schedule: Q01DX Z (oral), vehicle: other) 122 % of control; (dose: 100.0 mg/kg/injection, schedule: Q01DX001 (ip), vehicle: saline) 123 % of control; (dose: 150.0 mg/kg/injection, schedule: Q01DX015 (oral), vehicle: other) 120 % of control. Also, the T/C was 103 % of control (dose: 200.0 mg/kg/injection, schedule: Q01DX001 (ip), vehicle: saline); 97 % of control (dose: 200.0 mg/kg/injection, schedule: Q01DX015 (oral), vehicle: other); 94 % of control (dose: 250.0 mg/kg/injection, schedule: Q01DX015 (oral), vehicle: other).

Consider `CN(C)c1ccc(C(=O)C#N)cc1`, for which the T/C runs as follows: under setting [5], 100 % of control; (dose: 200.0 mg/kg/injection, schedule: Q01DX009 (ip), vehicle: Klucel (hydroxypropylcellulose) (HPC)) 108 % of control; (dose: 400.0 mg/kg/injection, schedule: Q01DX009 (ip), vehicle: Klucel (hydroxypropylcellulose) (HPC)) 100 % of control.

As for `CC1(C)N=C(N)N=C(N)N1c1ccc(CCCCc2cccc(S(=O)(=O)F)c2)c(Cl)c1`, the T/C by setting is: (dose: 6.25 mg/kg/injection, schedule: Q01DX009 (ip), vehicle: saline with Tween-80) 106 % of control; under setting [4], 104 % of control; (dose: 25.0 mg/kg/injection, schedule: Q01DX009 (ip), vehicle: saline with Tween-80) 113 % of control.

Turning to `CCCNC(=O)Nc1cc(C(F)(F)F)ccc1Cl`, the T/C is, setting by setting: under setting [1], 98 % of control; under setting [6], 97 % of control; under setting [2], 88 % of control; under setting [7], 103 % of control; under setting [3], 87 % of control; under setting [8], 108 % of control.

With `CC(=O)N(C)c1cc2c3c(c1)CCCN3CCC2`, the T/C is, setting by setting: (dose: 50.0 mg/kg/injection, schedule: Q01DX009 (ip), vehicle: Klucel (hydroxypropylcellulose) (HPC)) 104 % of control; under setting [5], 98 % of control.

For the compound `O=P(N1CCCCCC1)(N1CC1)N1CC1`, the T/C runs as follows: (dose: 1.7 mg/kg/injection, schedule: Q01DX Z (ip), vehicle: saline) 107 % of control; (dose: 2.6 mg/kg/injection, schedule: Q01DX Z (ip), vehicle: saline) 114 % of control; (dose: 4.0 mg/kg/injection, schedule: Q01DX Z (ip), vehicle: saline) 120 % of control; (dose: 9.0 mg/kg/injection, schedule: Q01DX Z (ip), vehicle: saline) 152 % of control.

Take `COc1ccccc1N1C(=O)CC(Sc2ccccc2N)C1=O` (stereo not drawn): the T/C was 95 % of control (dose: 100.0 mg/kg/injection, schedule: Q01DX009 (ip), vehicle: saline sonified); 87 % of control (dose: 100.0 mg/kg/injection, schedule: Q04DX003 (ip), vehicle: saline sonified); 88 % of control (dose: 200.0 mg/kg/injection, schedule: Q01DX009 (ip), vehicle: saline sonified); 94 % of control (dose: 200.0 mg/kg/injection, schedule: Q04DX003 (ip), vehicle: saline sonified); 93 % of control (dose: 400.0 mg/kg/injection, schedule: Q01DX009 (ip), vehicle: saline sonified); 96 % of control (dose: 400.0 mg/kg/injection, schedule: Q04DX003 (ip), vehicle: saline sonified).

Take `CC(=O)O/C=C1\CC2C3CC=C4CC(OC(C)=O)CCC4(C)C3CCC2(C)C1=O` (stereo not drawn): the T/C (dose: 200.0 mg/kg/injection, schedule: Q01DX001 (ip), vehicle: saline with Tween-80) was 90 % of control and the T/C (dose: 400.0 mg/kg/injection, schedule: Q01DX001 (ip), vehicle: saline with Tween-80) is 90 % of control.

Turning to `Nc1cc(Cl)ccc1S(N)(=O)=O`, the T/C reads like this: (dose: 100.0 mg/kg/injection, schedule: Q01DX009 (ip), vehicle: saline) 92 % of control; under setting [6], 105 % of control; (dose: 200.0 mg/kg/injection, schedule: Q01DX009 (ip), vehicle: saline) 100 % of control; under setting [7], 105 % of control; (dose: 400.0 mg/kg/injection, schedule: Q01DX009 (ip), vehicle: saline) 111 % of control; under setting [8], 108 % of control.

Consider `Cc1ccc(C(N)=O)cn1`, for which the T/C reads like this: under setting [1], 104 % of control; under setting [2], 104 % of control; under setting [7], 107 % of control; under setting [3], 101 % of control; under setting [8], 97 % of control.

Consider `COc1ccc(C(=O)Nc2cc(Cl)ccc2OC)cc1`, for which the T/C is 101 % of control (dose: 100.0 mg/kg/injection, schedule: Q01DX001 (ip), vehicle: other); 98 % of control and 102 % of control (dose: 100.0 mg/kg/injection, schedule: Q01DX009 (ip), vehicle: other); 93 % of control and 103 % of control (dose: 100.0 mg/kg/injection, schedule: Q04DX002 (ip), vehicle: carboxymethylcellulose (CMC)); 97 % of control (dose: 100.0 mg/kg/injection, schedule: Q04DX003 (ip), vehicle: other); 93 % of control (dose: 200.0 mg/kg/injection, schedule: Q01DX001 (ip), vehicle: other); 100 % of control and 109 % of control (dose: 200.0 mg/kg/injection, schedule: Q01DX009 (ip), vehicle: other). The T/C by setting is: (dose: 200.0 mg/kg/injection, schedule: Q04DX002 (ip), vehicle: carboxymethylcellulose (CMC)) 96 % of control and 116 % of control; (dose: 200.0 mg/kg/injection, schedule: Q04DX003 (ip), vehicle: other) 106 % of control; (dose: 400.0 mg/kg/injection, schedule: Q01DX001 (ip), vehicle: other) 97 % of control; (dose: 400.0 mg/kg/injection, schedule: Q01DX009 (ip), vehicle: other) 94 % of control and 88 % of control; (dose: 400.0 mg/kg/injection, schedule: Q04DX002 (ip), vehicle: carboxymethylcellulose (CMC)) 103 % of control and 104 % of control; (dose: 400.0 mg/kg/injection, schedule: Q04DX003 (ip), vehicle: other) 105 % of control.

Take `CC1=CC(C)(C)NC(=S)N1c1ccc(N=Nc2ccccc2)cc1`: the T/C is, setting by setting: (dose: 334.0 mg/kg/injection, schedule: Q01DX Z (ip), vehicle: methylcellulose (MC)) 91 % of control; (dose: 500.0 mg/kg/injection, schedule: Q01DX Z (ip), vehicle: methylcellulose (MC)) 92 % of control.
